Results reported in patent publication US20140066365A1, “USE OF CALIXARENES ASSOCIATED WITH AN ANTIBIOTIC IN THE TREATMENT OF BACTERIAL INFECTIONS” (priority 2011, published 2014).
Converted amounts (≈) assume the structure as drawn. Where two headings read alike, the source gives them in different places. Blank lines part the entries; values can stand above or below the molecule they belong to.

How the values were obtained:
[1] = test system: SaR1: Meticillin-Resistant Staphylococcus aureus without Associated Resistance; assay: Antibiogram, MIC by the VITEK 2 system; type: cell-based; conditions: SaR1; for CA-SFM Interpretation: Cc CA-SFM 2011; for CLSI Interpretation: Cc CLSI 2011; for EUCAST Interpretation: Cc EUCAST 2011; for Results: from MIC
Description: (§1) The bacterial and antibiogramidentification is carried out by the VITEK 2 system (bioMérieux)

[2] = test system: SaR4: Meticillin-Resistant Staphylococcus aureus; assay: Antibiogram, MIC by the VITEK 2 system; type: cell-based; conditions: SaR4; for MIC: Staphylococcus aureus, read-out: MIC
Description: (§2) The bacterial and antibiogramidentification is carried out by the VITEK 2 system (bioMérieux) and by the disk diffusion technique

[3] = test system: SaR3: Meticillin-Resistant Staphylococcus aureus; assay: Antibiogram by the disk diffusion technique; type: cell-based; conditions: for CA-SFM Interpretation: Cd CA-SFM 2011; for CLSI Interpretation: Cd CLSI 2011; for EUCAST Interpretation: Cd EUCAST 2011; for Diameter: Table E1; for Results: Table E1, against Dmin Dmax; for diameter in mm: Table E2
Description: as §2

[4] = test system: SaR1: Meticillin-Resistant Staphylococcus aureus without Associated Resistance; assay: Antibiogram, inhibition diameter (Table D1); type: cell-based; conditions: for Results: from diameter, against Dmin Dmax
Description: as §1

[5] = test system: MRSA strain without associated resistance (SaR1); assay: MIC of the compounds used alone, microdilution in a liquid medium (CLSI); type: cell-based, Staphylococcus aureus; conditions: Staphylococcus aureus, MRSA; antibiotic alone (second value of cell); SaR1; read-out: MIC
Description: (§3) The MICs of the antibiotics were previously defined for each strain, by the method of microdilution in a liquid medium (CLSI (Clinical and Laboratory Standards Institute), 2003).

[6] = test system: MRSA strain having a resistance to the aminoglycosides and fluoroquinolones (SaR3); assay: as above; type: cell-based, Staphylococcus aureus; conditions: Staphylococcus aureus, MRSA; antibiotic alone (second value of cell); SaR3; read-out: MIC
Description: as §3

[7] = as above; type: cell-based, Staphylococcus aureus; conditions: Staphylococcus aureus, MRSA; antibiotic alone (second value of cell); SaR4; read-out: MIC
Description: as §3

[8] = test system: Staphylococcus aureus strain ATCC 29213 (wild type); assay: as above; type: cell-based; conditions: Staphylococcus aureus, ATCC29213; antibiotic alone (second value of cell); S. aureus ATCC 29213; read-out: Initial MICs
Description: as §3

[9] = test system: EcR3: ESBL-Producing Escherichia coli; assay: Antibiogram by the disk diffusion technique; type: cell-based
Description: The bacterial and antibiogramidentification is carried out by the VITEK 2 system (bioMerieux) and by the disk diffusion technique

[10] = test system: EcR1: Penicillinase-Producing Escherichia coli without Associated Resistance; assay: Antibiogram by the disk diffusion technique; type: cell-based; conditions: Table A1
Description: (§4) 5.1 EcR1: Penicillinase-Producing Escherichia coli without Associated Resistance The bacterial and antibiogramidentification is carried out by the VITEK 2 system (bioMérieux) and by the disk diffusion technique.

[11] = test system: EcR1: Penicillinase-Producing Escherichia coli without Associated Resistance; assay: Antibiogram, MIC by the VITEK 2 system; type: cell-based; conditions: for MIC: Escherichia coli
Description: as §4

[12] = test system: EcR2: Cephalosporinase-Hyperproducing Strain of Escherichia coli; assay: Antibiogram, MIC by the VITEK 1 system; type: cell-based; conditions: for MIC: Escherichia coli, read-out: MIC
Description: The bacterial and antibiogramidentification is carried out by the VITEK 1 system (bioMérieux) and by the disk diffusion technique

[13] = test system: penicillinase-producing strain of Escherichia coli without associated resistance (EcR1); assay: MIC of the compounds used alone, microdilution in a liquid medium (CLSI); type: cell-based; conditions: Escherichia coli, antibiotic alone (second value of cell), read-out: Initial MICs
Description: as §3

[14] = test system: ESBL-producing strain of Escherichia coli, having an associated resistance to the aminoglycosides (EcR3); assay: as above; type: cell-based; conditions: Escherichia coli, antibiotic alone (second value of cell), read-out: Initial MICs
Description: as §3

[15] = test system: cephalosporinase-hyperproducing strain of Escherichia coli (EcR2); assay: as above; type: cell-based; conditions: Escherichia coli, antibiotic alone (second value of cell), read-out: Initial MICs
Description: as §3

[16] = test system: Escherichia coli strain ATCC 25922 (wild type); assay: as above; type: cell-based; conditions: Escherichia coli, ATCC25922; antibiotic alone (second value of cell); E. coli ATCC 25922; read-out: Initial MICs
Description: as §3

[17] = Staphylococcus aureus, Table D1, read-out: MIC

MIC mg/L ([1]; Table D2): ≦0.25 mg/L
MIC [1, 17]: ≤ 0.25 µg/mL
MIC ([2]; Table F1): ≥ 8 µg/mL
MIC ([2]; Table F2, MIC): ≥ 8 µg/mL
MIC [5]: 0.5 µg/mL
MIC [6]: 0.5 µg/mL
MIC [7]: > 32 µg/mL
MIC [8]: 0.5 µg/mL
Compound: CC[C@H]1OC(=O)[C@H](C)[C@@H](O[C@H]2C[C@@](C)(OC)[C@@H](O)[C@H](C)O2)[C@H](C)[C@@H](O[C@@H]2O[C@H](C)C[C@H](N(C)C)[C@H]2O)[C@](C)(O)C[C@@H](C)C(=O)[C@H](C)[C@@H](O)[C@]1(C)O [Erythromycin]
CA-SFM Interpretation [1]: Susceptible
CLSI Interpretation [1]: Susceptible
EUCAST Interpretation [1]: Susceptible
Results ([1]; Table D1): Susceptible
Results ([2]; Table F1, MIC): Resistant
CA-SFM Interpretation ([2]; from MIC, Cc CA-SFM 2011): Resistant
CLSI Interpretation ([2]; from MIC, Cc CLSI 2011): Resistant
EUCAST Interpretation ([2]; from MIC, Cc EUCAST 2011): Resistant
CA-SFM Interpretation [3]: Susceptible
CLSI Interpretation [3]: Susceptible
EUCAST Interpretation [3]: Susceptible
Diameter [3]: 25 mm
Results [3]: Susceptible
diameter in mm [3]: 25 mm
Diameter [4]: 25 mm
Results [4]: Susceptible

MIC ([11]; EcR1, Table A2, read-out: MIC mg/L (diameter in mm)): ≥ 32 mg/L
MIC ([11]; EcR1, VITEK 2, Table A1, read-out: MIC): ≥ 32 mg/L
MIC ([12]; EcR2, VITEK 1, Table B1): ≥ 32 µg/mL
MIC ([12]; EcR2, Table B2, MIC): ≥ 32 µg/mL
MIC [13]: > 256 µg/mL
MIC [14]: > 256 µg/mL
MIC [15]: 256 µg/mL
MIC [16]: 4 µg/mL
Compound: CC1(C)S[C@@H]2[C@H](NC(=O)[C@H](N)c3ccc(O)cc3)C(=O)N2[C@H]1C(=O)O [Amoxicillin]
CA-SFM Interpretation ([9]; Cd CA-SFM 2011): Resistant
CLSI Interpretation ([9]; Cd CLSI 2011): Resistant
EUCAST Interpretation ([9]; Cd EUCAST 2011): Resistant
Diameter ([9]; Table C1): 6 mm
Results ([9]; Table C1, against Dmin Dmax): Resistant
diameter in mm ([9]; Table C2): 6 mm
Diameter ([10]; EcR1, disk diffusion): 6 mm
Results ([10]; EcR1, interpretation of the diameter against Dmin Dmax): Resistant
CA-SFM Interpretation ([11]; EcR1, MIC against Cc CA-SFM 2011): Resistant
CLSI Interpretation ([11]; EcR1, MIC against Cc CLSI 2011): Resistant
EUCAST Interpretation ([11]; EcR1, MIC against Cc EUCAST 2011): Resistant
Results ([11]; EcR1, interpretation of the MIC, Table A1): Resistant
Results ([12]; EcR2, Table B1): Resistant
CA-SFM Interpretation ([12]; EcR2, from MIC, Cc CA-SFM 2011): Resistant
CLSI Interpretation ([12]; EcR2, from MIC, Cc CLSI 2011): Resistant
EUCAST Interpretation ([12]; EcR2, from MIC, Cc EUCAST 2011): Resistant

Compound: CC(=O)NC[C@H]1CN(c2ccc(N3CCOCC3)c(F)c2)C(=O)O1 [Linezolid]
CA-SFM Interpretation [1]: Susceptible
CLSI Interpretation [1]: Susceptible
EUCAST Interpretation [1]: Susceptible
Results ([1]; Table D1): Susceptible
MIC ([1]; Table D2): 2 µg/mL (≈ 5.93 µM)
MIC [1, 17]: 2 µg/mL (≈ 5.93 µM)
CA-SFM Interpretation [3]: Susceptible
CLSI Interpretation [3]: Susceptible
EUCAST Interpretation [3]: Susceptible
Diameter [3]: 26 mm
Results [3]: Susceptible
diameter in mm [3]: 26 mm
Diameter [4]: 29 mm
Results [4]: Susceptible
MIC [5]: 2 µg/mL
MIC [6]: 2 µg/mL
MIC [7]: 2 µg/mL
MIC [8]: 2 µg/mL

MIC [5]: 0.25 µg/mL
MIC [6]: 8 µg/mL
MIC [7]: > 32 µg/mL
MIC [8]: 0.125 µg/mL
Compound: C[C@H]1COc2c(N3CCN(C)CC3)c(F)cc3c(=O)c(C(=O)O)cn1c23 [Levofloxacin]
